Source: patent publication US7709002B1, “Mutated ras peptides for generation of CD8+Cytotoxic T lymphocytes” (The United States of America as represented by the …, priority 1996, dated 2010)
Read-outs that look alike come from different tables or passages of the source. Where no end group is shown, it is not given here.

Tests used:
[1] = system: peptide-pulsed autologous EBV-B cells; type: cell-based, human
Protocol: (§1) Cytotoxic response. Cytotoxicity was examined by a conventional ^51Cr-release assay, as described (6). Briefly, target cells (i.e. T2, C1R-A2, BLCL, K562) were radiolabeled with 200 μCi of Na2[^51Cr]04 (Amersham) for 60 minutes at 37° C., followed by thorough washing to remove unincorporated isotope. Effectors and targets (1×10^4/well) were incubated in 96-well, U-bottomed plates (Costar) at various effector target (E/T) ratios in the absence and presence of peptide (+/−monoclonal antibody (MAb) directed against CD4, CD8 or HLA-A2 molecules (clone BB7.2 from ATCC)) for up to 6 hours. After incubation, supernatants were collected using a Supernatant Collection System (Skatron, Sterling, Va.) and radioactivity measured in a γ-counter (Packard Instruments, Downers Grove, Ill.). Cytotoxic activity was defined as percent specific release of ^51Cr and determined by the equation: [(experimentalcpm−spontaneouscpm)/maximumcpm−spontaneouscpm)]×100. Results were expressed as the mean±SEM of triplicate cultures. The C1R-A2 line is a BLCL transfected with the HLA-A2 gene (obtained from Dr. P. Creswell, Yale University) (Storkus et al, 1987 J. Immunol. 138:1657-1659), and K562 is an erythroleukemia cell line (ATCC, Rockville, Md.) used to measure NK activity.

[2] = molecular target: T1, human HLA-A2 (Homo sapiens, UniProt P04439, D140Y/D185E/D98H/E176V/E277Q/G131W/G231S/I119V/I121R/I166T/I218V/L300P/L318F/N151K/N90K/P208A/P217A/Q86G/Q94H/R138H/R169H/T345S); test: HLA-A2 binding bioassay on T2 cells (flow cytometry); conditions: for Immunostaining of T2 cells with Isotype control MAb: no peptide = 84.0
T1 construct: The 174CEM.T2 cell line (“T2”), (transport deletion mutant); endogenous in cells; host or cells: 174CEM.T2 (T2) human cell line

[3] = system: SW480 cells; test: Flow cytometric analysis of SW480 cells for HLA-A2 and ICAM-1 after IFN-γ pretreatment; type: cell-based, human
Protocol: (§2) FIGS. 10A and 10B. Anti-ras Val12-specific CTL from patient 29 lyse SW480 tumor targets in the absence of exogenous peptide. FIG. 10A: Anti-ras Val12-specific CD8^+ CTL from patient 29 were assayed against the SW480 colon carcinoma cell line (HLA-A2^+, rasVal12+) in the absence of exogenous peptide, with or without IFN-γ pretreatment (250 U/ml for 24 hr) of the target cells. CD8^+ CTL reactive with the […] peptide were used as an irrelevant effector cell population. Cytotoxicity was determined by ^51Cr-release, and the results expressed at different effector/target ratios. FIG. 10B: In parallel to 10A, anti-ras or anti-MART-1-specific CTL were assayed against SW480 (±IFN-γ pretreatment) at an effector/target ratio of 10/1 in the absence or presence of exogenous peptide (5 μg/ml). […] Flow cytometric analysis of SW480 cells for expression of HLA-A2: untreated=65.4% with MFI of 29.8; IFN-γ-pretreated=99.5% with MFI of 349.6. Flow cytometric analysis of SW480 cells for expression of ICAM-1: untreated=16.0% with MFI of 30.3; IFN-γ-pretreated=98.6% with MFI of 181.9.
Isolation and preparation of peripheral blood mononuclear cells (PBMC). PBMC were isolated from 50 ml of heparinized whole blood by Ficoll-Hypaque density gradient centrifugation (Lymphocyte Separation Medium; Organon-Teknika, Durham, N.C.) prior to the first vaccination and four weeks after each vaccination. After isolation at each interval, PBMC were cryopreserved under liquid nitrogen in a sterile cocktail of 90% heat-inactivated, pooled human AB serum (Valley Biomedical, Winchester, Va.) and 10% dimethyl sulfoxide (DMSO) (Sigma Chemical Co., St. Louis, Mo.). Basic cellular immune responses to mitogens and antigens were first determined using freshly-thawed, unfractionated PBMC, derived pre-vaccination and post-third vaccination. For all functional assays and cell culture preparation, PBMC were suspended in a RPMI-1640 based-medium, supplemented with 15 mM HEPES buffer (pH 7.4), 2 mM L-glutamine, 0.1 mM non-essential amino acids, 1 mM sodium pyruvate, 50 μM β-mercaptoethanol, 50 μg/ml gentamicin (all from GIBCO/BRL, Gaithersburg, Md.) and 10% heat-inactivated human AB serum (Valley Biomedical). Cell surface phenotype of resting and activated lymphocyte cultures was analyzed by direct immunofluorescence. Cells were treated with the appropriate primary monoclonal antibody (MAb) conjugated to fluorescein isothiocyanate (FITC) (from Pharmingen, San Diego, Calif. or Becton Dickinson, Mountain View, Calif.), fixed with 1% paraformaldehyde and evaluated by flow cytometry using a FACScan (Becton Dickinson) for the percentage of positive cells and mean fluorescent intensity (MFI).

[4] = system: SW480 colon carcinoma cell line (HLA-A2+, rasVal12+); test: 51Cr-release cytotoxicity of CTL against SW480 colon carcinoma cells; type: cell-based, human; conditions: IFN-γ 250 U/ml for 24 hr; no lysis without pretreatment (FIG. 10A)
Protocol: as §2
(§3) Cytotoxic response. Cytotoxicity was examined by a conventional ^51Cr-release assay, as described (6). […] After incubation, supernatants were collected using a Supernatant Collection System (Skatron, Sterling, Va.) and radioactivity measured in a γ-counter (Packard Instruments, Downers Grove, Ill.). Cytotoxic activity was defined as percent specific release of ^51Cr and determined by the equation: [(experimentalcpm−spontaneouscpm)/maximumcpm−spontaneouscpm)]×100. Results were expressed as the mean±SEM of triplicate cultures. […]
Studies were also carried out to determine whether such peptide-induced CD8^+ CTL could recognize a processed form of the corresponding mutant ras protein. […] In contrast to the CD4^+ analysis, which measured lymphoproliferation to soluble protein, the CD8^+ CTL analysis reflected lytic ability against SW480 cells harboring the naturally-occurring mutation in the absence of exogenously added peptide. […]

[5] = system: T2 cell line as target of CD8+ CTL line of RAS patient 32; test: 51Cr-release cytotoxicity of CD8+ CTL line of RAS patient 32 against peptide-pulsed T2 targets; type: cell-based, human; conditions: peptide 10 μg/ml, IVS cycle 7 (FIG. 5)
Protocol: FIG. 5. Cytolytic activity by CD8^+ CTL line of RAS patient 32 is peptide-specific. The CD8^+ CTL line of RAS patient 32 (see FIG. 3) was assayed against the T2 cell line as a target, incubated with and without different ras peptides (10 μg/ml), as shown. In parallel, the extent of NK activity was evaluated against K562 cells. Cytotoxicity was determined by ^51Cr-release, and the results expressed at different E/T ratios following IVS cycle 7. Similar results were observed using the second, independently-derived CD8^+ CTL line as described in Table 6.
(§4) IVS cycles for evaluation of CD8^+ T cell responses from HLA-A2+Patients. Freshly-thawed PBMC (from ras patients 32 and 33), derived pre-vaccination and post-third vaccination, were enriched in T lymphocytes by passage over nylon wool columns (Robbins Scientific, Sunnyvale, Calif.) and then depleted of CD4^+ T cells by negative selection via panning on anti-CD4 MAb-coated T25 flasks (Applied Immune Sciences, Santa Clara, Calif.). For the first IVS cycle, CD8^+ enriched lymphocytes (5×10^5/well) were cultured in 24-well plates with irradiated, autologous PBMC (5×10^6/well) as APC which had been preincubated for 3 hours with the appropriate mutant ras peptide ([…]) plus human β2-microglobulin (10 μg/ml) (Calbiochem, San Diego, Calif.). […] IL-2 (10 U/ml) was added 3 days later. After an additional 7 days, viable cells (2-5×10^5/well) were re-cultured by weekly stimulation with APC pre-pulsed with peptide/β2-microglobulin, and IL-2 added one day later. After the third or fourth IVS cycle, autologous PBMC were replaced with EBV-transformed, autologous BLCL (5×10^5/well) as APC. […] CTL activity was evaluated from cultures 5 to 6 days after Ag restimulation.
as §1, with “The C1R-A2 line is a BLCL transfected with the HLA-A2 gene (obtained from Dr. P. Creswell, Yale University) (Storkus et al, 1987 J. Immunol. 138:1657-1659), and K562 is an erythroleukemia cell line (ATCC, Rockville, Md.) used to measure NK activity.” left out

[6] = system: C1R-A2 cell line as target of CD8+ CTL line of RAS patient 32; test: 51Cr-release cytotoxicity of CD8+ CTL line of RAS patient 32 against peptide-pulsed C1R-A2 targets; type: cell-based, human; conditions: for % Specific Lysis: E/T 20/1, 6 hr
Excerpt: as §4, §1

[7] = system: C1R-A2 targets / autologous EBV-B cells as targets of CD8+ CTL line of patient 29; test: 51Cr-release cytotoxicity of CD8+ CTL line of patient 29 against C1R-A2 or autologous EBV-B targets; type: cell-based, human; conditions: autologous EBV-B targets, IVS cycle 11, effector/target ratio 10/1 (FIG. 9B)
Protocol: FIGS. 9A and 9B. Production of a peptide-specific CD8^+ T cell line from post-vaccinated lymphocytes of patient 29. FIG. 9A: A CD8^+ CTL line was established from post-vaccinated PBMC of patient 29 and assayed for peptide specificity against C1R-A2 targets. Cytotoxicity was determined by ^51Cr-release, and the results expressed at different effector/target ratios following IVS cycle 7. FIG. 9B: Using this CD8^+ CTL line, the requirement for HLA-A2 in peptide presentation (by autologous EBV-B cells as targets) was determined in blocking experiments using MAb (clone BB7.2; ascites=1:30 dilution) directed against that molecule (or using an isotype-matched MAb). […] CD4 and CD8 MAbs were as described for FIGS. 8A and 8b. Control lysis in the absence of peptide or in the presence of ras5-14(Gly12) was <3%.
as §3

[8] = peptide 50 μg/ml + β2-microglobulin 3 μg/ml, overnight 37° C., serum-free
[9] = Post-Immune CD8+ culture, IVS cycle 6, 10-mer peptide 10 μg/ml
[10] = Post-Immune CD8+ culture, IVS cycle 7, 10-mer peptide 10 μg/ml
[11] = Post-Immune CD8+ culture, IVS cycle 8, 10-mer peptide 10 μg/ml
[12] = Post-Immune CD8+ culture, IVS cycle 9, 10-mer peptide 10 μg/ml
[13] = Pre-Immune CD8+ culture, IVS cycle 6, 10-mer peptide 10 μg/ml
[14] = Pre-Immune CD8+ culture, IVS cycle 7, 10-mer peptide 10 μg/ml

## CC(C)C[C@H](NC(=O)[C@@H](N)CCCCN)C(=O)N[C@H](C(=O)N[C@H](C(=O)N[C@H](C(=O)NCC(=O)N[C@@H](C)C(=O)N[C@@H](CS)C(=O)NCC(=O)N[C@H](C(=O)NCC(=O)N[C@@H](CCCCN)C(=O)N[C@@H](CO)C(=O)O)C(C)C)C(C)C)C(C)C)C(C)C [ras5-17(Cys12)]
[1]; CD4+ T cell line of patient 43
  Specific cytotoxic response of CD4+ T cell line: no specific cytotoxic response was detected

## CC(C)C[C@H](NC(=O)[C@@H](N)CCCCN)C(=O)N[C@H](C(=O)N[C@H](C(=O)N[C@H](C(=O)NCC(=O)N[C@@H](C)C(=O)N[C@H](C(=O)NCC(=O)N[C@H](C(=O)NCC(=O)N[C@@H](CCCCN)C(=O)N[C@@H](CO)C(=O)O)C(C)C)C(C)C)C(C)C)C(C)C)C(C)C [ras5-17(Val12)]
[1]; CD4+ T cell line of patient 29
  Specific cytotoxic response of CD4+ T cell line: did not display specific cytotoxicity

## CEA571-579: 9 amino acid peptide, HLA-A2-restricted CEA-specific CD8+ CTL epitope, positive control for HLA-A2 binding (CGIQNSVSA; UniProt P06731 571-579, looked up, fragment)
[2]; [8]
  Immunostaining of T2 cells with Isotype control MAb: 48.4 MFI
[2]; peptide 50 μg/ml + β2-microglobulin 3 μg/ml, overnight 37° C., serum-free, no peptide = 137.9
  Immunostaining of T2 cells with MAb against HLA-A2: 679.5 MFI
[2]; peptide 50 μg/ml + β2-microglobulin 3 μg/ml, overnight 37° C., serum-free, no peptide = 230.4
  Immunostaining of T2 cells with Pan Class I MAb (W6/32): 991.2 MFI

## IFN-γ: interferon gamma used to pretreat SW480 target cells
[3]; IFN-γ-pretreated (250 U/ml, 24 hr), untreated 65.4%
  SW480 cells positive for HLA-A2: 99.5%
[3]; IFN-γ-pretreated, untreated 16.0%
  SW480 cells positive for ICAM-1: 98.6%
[3]; IFN-γ-pretreated, untreated 29.8
  HLA-A2 expression on SW480: 349.6 MFI
[3]; IFN-γ-pretreated, untreated 30.3
  ICAM-1 expression on SW480: 181.9 MFI
[4]
  Lysis of SW480 by anti-rasVal12 CTL after pretreatment of targets, no exogenous peptide: demonstrable cytotoxicity was observed at multiple effector/target ratios

## Lys-Leu-Val-Val-Val-Gly-Ala-Asp-Gly-Val [ras5-14(Asp12)]
[5]
  Sensitization of T2 targets for lysis (in words): sensitized the T2 cell line for lysis
[6]; [9]
  % Specific Lysis: 24 ± 2%
[6]; [10]
  % Specific Lysis: 26 ± 2%
[6]; [11]
  % Specific Lysis: 67 ± 2%
[6]; [12]
  % Specific Lysis: 68 ± 4%
[6]; [13]
  % Specific Lysis: 14 ± 0%
[6]; [14]
  % Specific Lysis: 0%

## YLVVVGADGV [Tyr variant]
[2]; less dependency for exogenous β2-macroglobulin
  Binding activity to HLA-A2 on T2 cells relative to native ras5-14(Asp12) sequence: higher binding activity than did the native peptide sequence
[6]; anti-ras5-14(Asp12) CTL line, E/T 10/1 (FIG. 11)
  Shift in dose-response of target sensitization for lysis vs native peptide, based on half-maximal activity: three-fold

## ras5-14(Gly12): wild-type ras 10-mer peptide positions 5-14 with Gly at position 12 (KLVVVGAGGV)
[7]
  Control lysis: < 3%
[2]; [8]
  Immunostaining of T2 cells with Isotype control MAb: 41.3 MFI
[5]
  Sensitization of T2 targets for lysis (in words): failed to stimulate lysis
[6]; IVS cycle 16, effector/target ratio 10/1 (FIG. 7)
  Control lysis: < 3%
[6]; [9]
  % Specific Lysis: 8 ± 0%
[6]; [10]
  % Specific Lysis: 8 ± 1%
[6]; [11]
  % Specific Lysis: 10 ± 1%
[6]; [12]
  % Specific Lysis: 21 ± 2%
[6]; [13]
  % Specific Lysis: 10 ± 1%
[6]; [14]
  % Specific Lysis: 0%
